In article PMC11945486, “TAS1R2/TAS1R3 Single-Nucleotide Polymorphisms Affect Sweet Taste Receptor Activation by Sweeteners: The SWEET Project” (Nutrients, 2025):
Like-named read-outs stand apart in the source and are kept apart here. No end group written: not given here.

Target: T1, human TAS1R2-WT/TAS1R3-A735T (Homo sapiens, UniProt Q7RTX0+Q8TE23, A735T)
T1 construct: expressed in transfected cells; host or cells: HEK293T stably expressing Gα16gust44
T1 sequence (Q8TE23 20-839): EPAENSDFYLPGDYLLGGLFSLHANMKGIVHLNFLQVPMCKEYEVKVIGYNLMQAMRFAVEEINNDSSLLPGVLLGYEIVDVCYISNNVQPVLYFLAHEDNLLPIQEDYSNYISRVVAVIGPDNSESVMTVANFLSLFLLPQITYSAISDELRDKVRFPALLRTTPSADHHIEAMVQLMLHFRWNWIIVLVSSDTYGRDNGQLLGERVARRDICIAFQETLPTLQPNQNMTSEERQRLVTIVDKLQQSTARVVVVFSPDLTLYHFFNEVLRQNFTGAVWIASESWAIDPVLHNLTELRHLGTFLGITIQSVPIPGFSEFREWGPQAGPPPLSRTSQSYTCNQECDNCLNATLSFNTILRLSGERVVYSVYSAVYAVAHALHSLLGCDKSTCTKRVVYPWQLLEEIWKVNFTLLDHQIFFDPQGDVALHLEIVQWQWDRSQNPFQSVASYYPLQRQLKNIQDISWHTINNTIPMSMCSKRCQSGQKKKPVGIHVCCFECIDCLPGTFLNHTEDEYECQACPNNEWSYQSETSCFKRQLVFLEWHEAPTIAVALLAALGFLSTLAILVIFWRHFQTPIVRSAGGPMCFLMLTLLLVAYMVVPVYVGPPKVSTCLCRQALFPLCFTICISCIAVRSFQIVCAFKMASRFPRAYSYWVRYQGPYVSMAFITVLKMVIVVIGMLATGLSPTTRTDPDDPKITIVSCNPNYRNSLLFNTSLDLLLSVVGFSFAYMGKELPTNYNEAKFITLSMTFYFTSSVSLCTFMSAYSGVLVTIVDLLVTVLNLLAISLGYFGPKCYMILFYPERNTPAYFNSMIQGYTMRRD
T1 sequence (Q7RTX0 21-852 A735T): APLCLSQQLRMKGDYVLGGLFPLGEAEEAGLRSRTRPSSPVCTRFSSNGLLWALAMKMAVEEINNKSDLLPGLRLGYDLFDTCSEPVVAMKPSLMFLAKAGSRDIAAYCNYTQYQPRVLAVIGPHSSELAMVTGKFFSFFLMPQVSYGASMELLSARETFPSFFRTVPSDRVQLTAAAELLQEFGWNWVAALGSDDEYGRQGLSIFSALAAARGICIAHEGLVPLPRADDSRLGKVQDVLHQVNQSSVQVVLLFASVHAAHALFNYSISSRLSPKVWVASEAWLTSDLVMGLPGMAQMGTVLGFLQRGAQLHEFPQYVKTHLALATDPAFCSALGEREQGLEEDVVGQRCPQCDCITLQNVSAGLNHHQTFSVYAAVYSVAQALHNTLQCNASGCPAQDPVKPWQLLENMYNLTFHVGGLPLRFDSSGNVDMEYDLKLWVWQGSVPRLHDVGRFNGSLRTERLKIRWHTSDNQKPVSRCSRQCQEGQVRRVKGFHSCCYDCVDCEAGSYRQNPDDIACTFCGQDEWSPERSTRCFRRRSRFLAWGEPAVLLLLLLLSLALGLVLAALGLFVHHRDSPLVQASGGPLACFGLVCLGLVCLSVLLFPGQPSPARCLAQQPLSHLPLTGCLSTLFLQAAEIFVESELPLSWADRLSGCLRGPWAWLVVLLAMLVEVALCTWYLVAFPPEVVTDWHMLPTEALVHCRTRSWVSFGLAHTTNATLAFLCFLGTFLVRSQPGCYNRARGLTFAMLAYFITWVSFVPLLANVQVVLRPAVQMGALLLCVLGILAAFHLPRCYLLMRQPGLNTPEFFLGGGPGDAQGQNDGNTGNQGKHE
Assay: Calcium mobilisation assay, TAS1R2-WT with TAS1R3 variant A735T
Type: cell-based
Conditions: for Max ΔF/F0: maximal signal amplitude
From the text: The coding sequences for TAS1R2 and TAS1R3 were commercially synthesised, and the human codon was optimised for expression in human cells. The coding sequences of human TAS1R2 and TAS1R3 were subcloned and inserted into the mammalian expression vectors pcDNA6/myc-HisA and pcDNA4/myc-HisA (Invitrogen; Thermo Fisher Scientific; Illkirch, France) between the EcoRI and NotI restriction sites, generating the plasmids pcDNA6-TAS1R2 and pcDNA4-TAS1R3, respectively. To increase protein expression in mammalian cells, an upstream start codon was used, which was a sequence called MAX, corresponding to the QBI SP163 element also described in pcDNA4-HisMax (Invitrogen; Thermo Fisher Scientific; Illkirch, France). To measure the expression level of the receptor by immunohistochemistry, we used the FLAG sequence ([…]) in the C-terminal position, which encodes the FLAG tag epitope. SNP variants of TAS1R2 and TAS1R3 were constructed based on […], respectively, using site-directed mutagenesis (Genewiz; Leipzig, Germany).
The HEK293T cells were kindly provided by Jay P. Slack (Givaudan Flavors Corporation; Cincinnati, OH, USA). HEK293T cells stably transfected with Gα16gust44 [43, 67] were seeded in poly-D-lysine-coated clear-bottom black 96-well plates (0.35 × 10^5 cells/well) in high-glucose DMEM supplemented with 2 mM GlutaMAX, 10% dialysed foetal bovine serum with penicillin/streptomycin and G418 (400 μg/mL) at 37 °C and 6.3% CO2 in a humidified atmosphere as previously reported. […] As a negative control, HEK293T cells were mock-transfected with the empty expression vector. After a further 24 h of incubation, the HEK293T cells were washed with C1 buffer (130 mM NaCl, 5 mM KCl, 10 mM HEPES pH 7.4 and 2 mM CaCl2). The 96-well plates containing the cells were then stimulated with sweet-tasting compounds. […] Different concentration ranges were tested depending on the sweet compound injected. The Ca^2+ changes were expressed as fractional changes in fluorescent light intensity: ΔF/F = (F − F0)/F0, where F was the fluorescent light intensity at each point, and F0 was the value of emitted fluorescent light prior to stimulus application. To calculate dose–response relationships, the changes in fluorescence upon stimulus application were averaged, mock-subtracted and baseline-corrected. The dose–response data obtained were adjusted using a 4-parameter logistic equation. The half-maximal effective concentrations (EC50 values) and maximal signal amplitudes were calculated using SigmaPlot software (version 15.0) (Systat Software; San Jose, CA, USA).
For in vitro calcium mobilisation assay performed on hTAS1R2-SNPs, hTAS1R3-SNPs and mTAS1R3-I60T, 6 to 7 concentrations were tested for each sweet compound, plus buffer alone. All concentration–receptor combinations were measured in duplicate, and each experiment was repeated at least 4 times (8 wells/concentration). Results were expressed for each concentration as ΔF/F mean ± SEM and represented as dose–response curves.

Molecule: CC1=CC(=O)NS(=O)(=O)O1 [Acesulfame K, acesulfame K]
- R1 = Variant EC50/WT EC50: 1.1
- Max ΔF/F0: 0.47 ± 0.02
- EC50 (read-out: EC50): 685 ± 56 µM

Molecule: O=S(=O)(O)NC1CCCCC1 [Cyclamate, cyclamate]
- EC50 (read-out: EC50): 1870 ± 32 µM

Molecule: C[C@H](CC[C@@H](O[C@@H]1O[C@H](CO[C@@H]2O[C@H](CO)[C@@H](O)[C@H](O)[C@H]2O)[C@@H](O)[C@H](O)[C@H]1O[C@@H]1O[C@H](CO)[C@@H](O)[C@H](O)[C@H]1O)C(C)(C)O)[C@H]1CC[C@@]2(C)[C@@H]3CC=C4[C@@H](CC[C@H](O[C@@H]5O[C@H](CO[C@@H]6O[C@H](CO)[C@@H](O)[C@H](O)[C@H]6O)[C@@H](O)[C@H](O)[C@H]5O)C4(C)C)[C@]3(C)[C@H](O)C[C@]12C [Mogroside V, mogroside V]
- R1 = Variant EC50/WT EC50: 0.9
- Max ΔF/F0: 1.17 ± 0.03
- EC50 (read-out: EC50): 28.7 ± 2.2 µM

Molecule: COc1ccc(CCC(=O)c2c(O)cc(O[C@@H]3O[C@H](CO)[C@@H](O)[C@H](O)[C@H]3O[C@@H]3O[C@@H](C)[C@H](O)[C@@H](O)[C@H]3O)cc2O)cc1O [NHDC, neohesperidin dihydrochalcone]
- R1 = Variant EC50/WT EC50: 0.8
- Max ΔF/F0: 1.00 ± 0.01
- EC50 (read-out: EC50): 42.2 ± 1.4 µM

Molecule: COC(=O)[C@H](Cc1ccccc1)NC(=O)[C@H](CC(=O)O)NCCC(C)(C)C [Neotame]
- R1 = Variant EC50/WT EC50: 0.8
- Max ΔF/F0: 0.61 ± 0.02
- EC50 (read-out: EC50): 0.93 ± 0.07 µM

Molecule: C=C(C)[C@@H]1CC=C(/C=N/O)CC1 [Perillartine, perillartine]
- R1 = Variant EC50/WT EC50: 0.9
- Max ΔF/F0: 1.56 ± 0.23
- EC50 (read-out: EC50): 12.6 ± 5.9 µM

Molecule: C=C1C[C@@]23CC[C@H]4[C@@](C)(CCC[C@@]4(C)C(=O)O[C@@H]4O[C@H](CO)[C@@H](O)[C@H](O[C@@H]5O[C@H](CO)[C@@H](O)[C@H](O)[C@H]5O)[C@H]4O[C@@H]4O[C@H](CO)[C@@H](O)[C@H](O)[C@H]4O)[C@@H]2CC[C@]1(O[C@@H]1O[C@H](CO)[C@@H](O)[C@H](O[C@@H]2O[C@H](CO)[C@@H](O)[C@H](O)[C@H]2O)[C@H]1O[C@@H]1O[C@H](CO)[C@@H](O)[C@H](O)[C@H]1O)C3 [Rebaudioside M, rebaudioside M]
- R1 = Variant EC50/WT EC50: 0.6
- Max ΔF/F0: 1.24 ± 0.04
- EC50 (read-out: EC50): 23 ± 1.9 µM

Molecule: OC[C@H]1O[C@H](O[C@]2(CCl)O[C@H](CCl)[C@@H](O)[C@@H]2O)[C@H](O)[C@@H](O)[C@H]1Cl [Sucralose]
- R1 = Variant EC50/WT EC50: 1.4
- Max ΔF/F0: 0.70 ± 0.01
- EC50 (read-out: EC50): 151 ± 4 µM

Molecule: brazzein (QDKCKKVYENYPVSKCQLANQCNYDCKLDKHARSGECFYDEKRNLQCICDYCEY; ends and bridges not checked; cysteine pairing not given here; UniProt P56552 1-54, looked up) [sweet-tasting protein obtained by recombinant production using the yeast Pichia pastoris]
- R1 = Variant EC50/WT EC50: 0.7
- EC50 (brazzein): 82.7 ± 14.9 µg/mL
- Max ΔF/F0: 0.90 ± 0.05

Molecule: thaumatin
- R1 = Variant EC50/WT EC50: 0.7
- Max ΔF/F0: 0.70 ± 0.06

B1: thaumatin (protein)
chain: ATFEIVNRCSYTVWAAASKGDAALDAGGRQLNSGESWTINVEPGTKGGKIWARTDCYFDDSGSGICKTGDCGGLLRCKRFGRPPTTLAEFSLNQYGKDYIDISNIKGFNVPMDFSPTTRGCRGVRCAADIVGQCPAKLKAPGGGCNDACTVFQTSEYCCTTGKCGPTEYSRFFKRLCPDAFSYVLDKPTTVTCPGSSNYRVTFCPTA
modifications: Eight disulfides
notes: sweet-tasting plant protein, E957
- EC50 (read-out: EC50): 7.2 ± 1.5 µM
